Experimental data published in patent publication US20090088419A1, “PYRIDYL ACETIC ACID COMPOUNDS” (TAKEDA PHARMACEUTICAL COMPANY LIMITED, priority 2005, published 2009).
Structures can show the parent of a compound that is named as a salt.

What was measured:
[1] = biological target: T1, dipeptidyl peptidase IV (Rattus norvegicus, UniProt P14740); assay: Determination of dipeptidyl peptidase IV inhibitory activity in rat plasma (Experimental Example 1); type: biochemical; conditions: plasma of SD rat, substrate Gly-Pro-p-NA, 30° C., absorbance 405 nm after 1 hr; Table 5
T1 construct: from tissue; host or cells: SD rat blood plasma
T1 sequence (P14740 37-767 limits assumed): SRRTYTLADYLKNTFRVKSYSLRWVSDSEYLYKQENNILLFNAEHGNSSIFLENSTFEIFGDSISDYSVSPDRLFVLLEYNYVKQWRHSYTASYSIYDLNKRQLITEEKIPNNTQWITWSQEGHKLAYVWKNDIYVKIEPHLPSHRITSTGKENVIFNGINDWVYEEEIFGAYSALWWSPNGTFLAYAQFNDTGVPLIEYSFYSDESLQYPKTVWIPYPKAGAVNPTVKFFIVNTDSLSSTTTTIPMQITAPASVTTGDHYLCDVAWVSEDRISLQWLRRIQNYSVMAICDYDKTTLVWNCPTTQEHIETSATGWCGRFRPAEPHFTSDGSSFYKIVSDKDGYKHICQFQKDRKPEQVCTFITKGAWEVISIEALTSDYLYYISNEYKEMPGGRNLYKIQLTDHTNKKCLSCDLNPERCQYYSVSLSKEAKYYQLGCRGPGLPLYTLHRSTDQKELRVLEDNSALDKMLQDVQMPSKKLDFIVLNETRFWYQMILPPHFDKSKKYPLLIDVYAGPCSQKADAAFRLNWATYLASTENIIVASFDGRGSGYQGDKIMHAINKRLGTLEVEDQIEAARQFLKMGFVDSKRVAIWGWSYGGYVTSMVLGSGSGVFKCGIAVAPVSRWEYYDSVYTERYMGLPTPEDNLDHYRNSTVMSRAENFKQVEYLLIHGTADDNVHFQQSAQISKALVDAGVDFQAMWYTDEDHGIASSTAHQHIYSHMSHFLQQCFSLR
Description: (§1) Determination of Dipeptidyl Peptidase IV Inhibitory Activity in Rat Plasma
(§2) A dimethylformamide solution (1 μL) containing the test compound was added to a mixture of water (69 μL), 1 M Tris-hydrochloride buffer (10 μL, pH 7.5) and 1 mM aqueous Gly-Pro-p-NA solution (100 μL) to prepare a mixed solution. Plasma (20 μL) prepared from blood of SD rat according to a conventional method was added to the above-mentioned mixed solution and the enzyme reaction was started at 30° C. The absorbance after 0 hr. and 1 hr. was measured using a microplate reader at a wavelength of 405 nm and an increase (AODs) was determined. At the same time, an increase (AODc) in absorbance of the reaction mixture without the test compound, and an increase (AODb) in absorbance of the reaction mixture without the test compound and the enzyme were determined and the inhibition rate of dipeptidyl peptidase IV enzyme activity was calculated from the following formula:
(§3) {1−[(ΔODs−ΔODb)/(ΔODc−ΔODb)]}×100
The dipeptidyl peptidase IV inhibitory activity of the test compound group is expressed in IC50 value (nM) and shown in Table 5.

[2] = biological target: T1, dipeptidyl peptidase IV; assay: Determination of dipeptidyl peptidase IV inhibitory activity in rat plasma (Experimental Example 2); type: biochemical; conditions: plasma of SD rat, same manner as Experimental Example 1; Table 6
Description: as §2, §3, §1

Row | Structure (SMILES) | IC50 [1] | IC50 [2]
1 | CCc1nc(CC(C)C)c(CN)c(-c2ccc(C)cc2)c1CC(=O)O [Example 1, [5-(aminomethyl)-2-ethyl-6-isobutyl-4-(4-methylphenyl)pyridin-3-yl]acetic acid] | 33 nM | –
2 | Cc1ccc(-c2c(CN)c(CC(C)C)nc(CC(C)C)c2CC(=O)O)cc1 [Example 2, [5-(aminomethyl)-2,6-diisobutyl-4-(4-methylphenyl)pyridin-3-yl]acetic acid dihydrochloride] | – | 35 nM
3 | CCc1nc(CC(C)(C)C)c(CN)c(-c2ccc(C)cc2)c1CC(=O)Nc1cccc(C(C)=O)c1 [Example 5, N-(3-acetylphenyl)-2-[5-(aminomethyl)-2-ethyl-4-(4-methylphenyl)-6-neopentylpyridin-3-yl]acetamide dihydrochloride] | – | 5.1 nM
4 | CCc1nc(CC(C)(C)C)c(CN)c(-c2ccc(C)cc2)c1CC(=O)N1CCC[C@H]1C(N)=O [Example 6, 1-{[5-(aminomethyl)-2-ethyl-4-(4-methylphenyl)-6-neopentylpyridin-3-yl]acetyl}-L-prolinamide] | – | 2.7 nM
5 | CCc1nc(CC(C)(C)C)c(CN)c(-c2ccc(C)cc2)c1CC(=O)Nc1cccc(S(C)(=O)=O)c1 [Example 7, 2-[5-(aminomethyl)-2-ethyl-4-(4-methylphenyl)-6-neopentylpyridin-3-yl]-N-[3-(methylsulfonyl)phenyl]acetamide dihydrochloride] | – | 51 nM
6 | Cc1ccc(-c2c(CN)c(CC(C)C)nc(CC(C)C)c2CC(=O)N2CCC(S(C)(=O)=O)C2)cc1 (stereo not shown) [Example 10, [(2,6-diisobutyl-4-(4-methylphenyl)-5-{2-[3-(methylsulfonyl)pyrrolidin-1-yl]-2-oxoethyl}pyridin-3-yl)methyl]amine ditrifluoroacetate] | 0.85 nM | –
7 | Cc1ccc(-c2c(CN)c(CC(C)C)nc(CC(C)C)c2CC(=O)N2C[C@@H](C)O[C@@H](C)C2)cc1 [Example 20] | 8.4 nM | –
8 | Cc1ccc(-c2c(CN)c(CC(C)C)nc(CC(C)C)c2CC(=O)N2CCC[C@H]2C(N)=O)cc1 [Example 45] | 2 nM | –
9 | CC(=O)N1CCN(C(=O)Cc2c(CC(C)C)nc(CC(C)C)c(CN)c2-c2ccc(C)cc2)CC1 [Example 47] | 4.8 nM | –
10 | CCc1nc(CC(C)(C)C)c(CN)c(-c2ccc(C)cc2)c1CC(=O)N1C[C@@H](C)O[C@@H](C)C1 [Example 64] | 1.7 nM | –
11 | CCc1nc(CC(C)(C)C)c(CN)c(-c2ccc(C)cc2)c1CC(=O)Nc1ccc(C(C)=O)cc1 [Example 80] | 11 nM | –
12 | CCc1nc(CC(C)(C)C)c(CN)c(-c2ccc(C)cc2)c1CC(=O)N1CCC[C@H]1C(N)=O [Example 87] | 0.32 nM | –
13 | CCc1nc(CC(C)(C)C)c(CN)c(-c2ccc(C)cc2)c1CC(=O)N1CCN(C(C)=O)CC1 [Example 89] | 3.6 nM | –
